Assay results published in PMC6399351, “Cationic Intrinsically Disordered Antimicrobial Peptides (CIDAMPs) Represent a New Paradigm of Innate Defense with a Potential for Novel Anti-Infectives” (Scientific Reports, 2019).
Values joined by “and” are separate entries in the source; they are usually repeats but may differ in a detail not shown here. Identical values can stand only once. Like-named read-outs stand apart in the source and are kept apart here. Ends that are not written are not given here.

Experiments:
[1] = system: Burkholderia cepacia ATCC 25416; settings: CFU assay, 10 mM NaP, pH 5.5, 0.25% glucose
P. aeruginosa ATCC 10145 = settings: CFU assay, 10 mM NaP
C. albicans ATCC 24433 = test: CFU assay of antimicrobial activity; format: cell-based, Candida albicans; settings: 10 mM NaP
Experimental: Bacteria were cultivated in either brain heart infusion medium (BHI), lysogeny broth (LB) or tryptic soy broth (TSB)[88]. If not otherwise stated, bacteria were incubated under shaking conditions (37 °C at 170 rpm) or as indicated on the ATCC- or DSM-data sheets. Candida albicans was cultured for 3 days on Yeast Extract-Peptone Dextrose (YPD) agar at 30 °C and yeast suspensions at appropriate density were treated with CIDAMPs as indicated.
(§1) All purified peptides and recombinant proteins were applied using a colony forming unit (CFU) assay in different media. Bacteria were grown to early log-phase in BHI, washed either with 10 mM Na-P, pH 7.4/1% TSB or pH 5.5/1% TSB, or pH 5.5 without TSB or BHI, and adjusted to a concentration of 10^4–10^5 colony forming units (CFU)/ml. For cell number control, 100 µl aliquots were diluted 1:10, 1:100 and 1:1000 and plated in duplicates on BHI agar plates. To 100 µl aliquots of the bacteria, suspended in the respective medium (10 mM Na-P buffer pH 7,0–7,4/ 1% (w/v) TSB; 10 mM Na-P buffer pH 5,5/ 1% (w/v) TSB; 10 mM Na-P buffer pH 7,0–7,4/ 1% (w/v) TSB pH 7,0–7,4/ 0,25% (w/v) glucose; 10 mM Na-P buffer pH 5,5/ 0,25% (w/v) glucose, respectively), 10 µl of a solution of the peptide or protein (two-fold dilutions, from 300 µg/ml or 150 µg/ml down to 19 ng/ml), dissolved in 0.01% (v/v) acetic acid, were added.
(§2) Then bacteria were incubated for 2 h at ambient temperature, if not otherwise stated. 10 µl of 0.01% (v/v) acetic acid, added to 100 µl aliquots of the bacteria in the respective medium, served as negative control. From each test, 1:10 and 1:100 dilutions were generated and plated as duplicates of 100 µl aliquots on BHI agar plates. After 16 h incubation at 37 °C, CFU were counted using a colony counter (Bio Kobe, Japan) and expressed as mean of the duplicate estimation to achieve a complete dose-response curve. All experiments were performed at serial dilutions in a concentration range of 100 µg/mL −25 ng/mL for recombinant HRNR fragments and 300 or 150 µg/mL–19 ng/mL for synthetic peptides.

E. coli ATCC 11775 = test: CFU assay of antimicrobial activity; format: cell-based, Escherichia coli; settings: 10 mM NaP, pH 5.5, 1% TSB
Experimental: as §1, §2

[2] = system: Corynebacterium simulans DSM 44415; test: CFU assay of antimicrobial activity; format: cell-based; settings: 10 mM NaP, pH 6.0, 0.25% glucose
Experimental: All purified peptides and recombinant proteins were applied using a colony forming unit (CFU) assay in different media. Bacteria were grown to early log-phase in BHI, washed either with 10 mM Na-P, pH 7.4/1% TSB or pH 5.5/1% TSB, or pH 5.5 without TSB or BHI, and adjusted to a concentration of 10^4–10^5 colony forming units (CFU)/ml. For cell number control, 100 µl aliquots were diluted 1:10, 1:100 and 1:1000 and plated in duplicates on BHI agar plates. […]
as §2

[3] = CFU assay, 10 mM NaP, pH 5.5, 1% TSB

For GRHGSGLGHSSSHGQHGSGSGRSSSRGPY [HR 1-17], which LD90 [1] is on record?
Its LD90 is over 300 µg/mL.

What about the LD100 [1] of the same molecule?
The LD100 was over 300 µg/mL.

What about the LD90 (S. aureus ATCC 6538; [3]) of the same molecule?
The LD90 was over 300 µg/mL.

And the LD100 (S. aureus ATCC 6538; [3])?
Its LD100 is over 300 µg/mL.

And the LD90 (P. aeruginosa ATCC 10145; pH 5.5, 0.25% glucose)?
The LD90 was 0.038 µg/mL and 0.075 µg/mL.

What about the LD100 (P. aeruginosa ATCC 10145; pH 5.5, 0.25% glucose) of the same molecule?
The LD100 was 0.15 µg/mL and 0.3 µg/mL.

And the LD90 (P. aeruginosa ATCC 10145; pH 5.5, 1% TSB)?
The LD90 was 0.59 µg/mL.

And the LD100 (P. aeruginosa ATCC 10145; pH 5.5, 1% TSB)?
The LD100 was 18.75 µg/mL.

What about the LD90 (C. albicans ATCC 24433; pH 5.5, 0.25% glucose) of the same molecule?
Its LD90 is 18.8 µg/mL.

What about the LD100 (C. albicans ATCC 24433; pH 5.5, 0.25% glucose) of the same molecule?
The LD100 was 9.38 µg/mL.

And the LD90 (C. albicans ATCC 24433; pH 5.5, 1% TSB)?
The LD90 was 18.8 µg/mL.

What about the LD100 (C. albicans ATCC 24433; pH 5.5, 1% TSB) of the same molecule?
The LD100 was 150 µg/mL.

And the LD90 (E. coli ATCC 11775)?
Its LD90 is over 300 µg/mL.

And the LD100 (E. coli ATCC 11775)?
Its LD100 is over 300 µg/mL.

With HTQNSSSGQAASSHEQAR [FLG684-701] as the molecule, how does the LD90 (P. aeruginosa ATCC 10145; pH 5.5, 0.25% glucose) read?
Its LD90 is over 300 µg/mL.

What about the LD100 (P. aeruginosa ATCC 10145; pH 5.5, 0.25% glucose) of the same molecule?
Its LD100 is over 300 µg/mL.

And the LD90 [2]?
The LD90 was over 150 µg/mL.

And the LD100 [2]?
The LD100 was over 150 µg/mL.

Which results are given for “QGSHHEQSVNRSGHSGSHHSHTTSQGR [FLG528-554]”?
activity against S. aureus ATCC 6538 (S. aureus ATCC 6538; at concentrations <60 µM (data not shown)): lack activity; LD90 (P. aeruginosa ATCC 10145; pH 5.5, 0.25% glucose): 0.15 µg/mL; LD100 (P. aeruginosa ATCC 10145; pH 5.5, 0.25% glucose): 0.59 µg/mL; LD90 [2]: > 150 µg/mL; LD100 [2]: > 150 µg/mL

Which LD90 (P. aeruginosa ATCC 10145; pH 5.5, 0.25% glucose) does the source give for QSGTHHAENSSGGQAASSHEQAR [FLG2301-2323] here?
The LD90 was over 300 µg/mL.

What about the LD100 (P. aeruginosa ATCC 10145; pH 5.5, 0.25% glucose) of the same molecule?
Its LD100 is 300 µg/mL.

What about the LD90 [2] of the same molecule?
The LD90 was over 150 µg/mL.

What about the LD100 [2] of the same molecule?
The LD100 was over 150 µg/mL.

For QSGTRHAETSSGGQAASSHEQAR [FLG3273-3295], which LD90 (P. aeruginosa ATCC 10145; pH 5.5, 0.25% glucose) is on record?
Its LD90 is over 300 µg/mL.

And the LD100 (P. aeruginosa ATCC 10145; pH 5.5, 0.25% glucose)?
Its LD100 is 300 µg/mL.

And the LD90 [2]?
Its LD90 is over 150 µg/mL.

And the LD100 [2]?
Its LD100 is over 150 µg/mL.

What does the source list for QSGTRHETSSGGQAASSQEQAR [FLG1652-1674]?
LD90 (P. aeruginosa ATCC 10145; pH 5.5, 0.25% glucose): > 300 µg/mL; LD100 (P. aeruginosa ATCC 10145; pH 5.5, 0.25% glucose): > 300 µg/mL; LD90 [2]: > 150 µg/mL; LD100 [2]: > 150 µg/mL

How did the LD90 (P. aeruginosa ATCC 10145; pH 5.5, 0.25% glucose) turn out when QSGTRHTQTSSGGQAASSHEQAR [FLG2625-2647] was run?
The LD90 was over 300 µg/mL.

And the LD100 (P. aeruginosa ATCC 10145; pH 5.5, 0.25% glucose)?
The LD100 was over 300 µg/mL.

What about the LD90 [2] of the same molecule?
The LD90 was over 150 µg/mL.

And the LD100 [2]?
The LD100 was over 150 µg/mL.

How did the LD90 (P. aeruginosa ATCC 10145; pH 5.5, 1% TSB) turn out when “rHRNR2638–2684: recombinant HRNR fragment (QSSGHGRQGSGSGQSPSRGRHGSGLGHSSSHGQHGSGSGRSSSRGPY; UniProt Q86YZ3 2638-2684, looked up, fragment)” was run?
The LD90 was 0.39 µg/mL.

And the LD100 (P. aeruginosa ATCC 10145; pH 5.5, 1% TSB)?
The LD100 was 12.5 µg/mL.

What about the LD90 (C. albicans ATCC 24433; pH 5.5, 1% TSB) of the same molecule?
Its LD90 is 6.3 µg/mL.

What about the LD100 (C. albicans ATCC 24433; pH 5.5, 1% TSB) of the same molecule?
Its LD100 is over 100 µg/mL.

And the LD90 (E. coli ATCC 11775)?
The LD90 was 3.1 µg/mL.

And the LD100 (E. coli ATCC 11775)?
Its LD100 is over 100 µg/mL.

With “rHRNR2656–2684: recombinant HRNR fragment (GRHGSGLGHSSSHGQHGSGSGRSSSRGPY; UniProt Q86YZ3 2656-2684, looked up, fragment)” as the molecule, how does the LD90 (P. aeruginosa ATCC 10145; pH 5.5, 1% TSB) read?
Its LD90 is 0.78 µg/mL.

And the LD100 (P. aeruginosa ATCC 10145; pH 5.5, 1% TSB)?
Its LD100 is 12.5 µg/mL.

And the LD90 (C. albicans ATCC 24433; pH 5.5, 1% TSB)?
The LD90 was 6.3 µg/mL.

What about the LD100 (C. albicans ATCC 24433; pH 5.5, 1% TSB) of the same molecule?
The LD100 was over 100 µg/mL.

What about the LD90 (E. coli ATCC 11775) of the same molecule?
The LD90 was 3.1 µg/mL.

And the LD100 (E. coli ATCC 11775)?
The LD100 was over 100 µg/mL.

B1: rHRNR2727–2850: recombinant HRNR fragment (protein, UniProt Q86YZ3 2727-2850, looked up, fragment)
chain: SGQSSTFDQEGSSTGQSSSYGHRGSGSSQSSGYGRHGAGSGQSLSHGRHGSGSGQSSSYGQHGSGSGQSSGYSQHGSGSGQDGYSYCKGGSNHDGGSSGSYFLSFPSSTSPYEYVQEQRCYFYQ
How did the LD90 (P. aeruginosa ATCC 10145; pH 5.5, 1% TSB) turn out when B1 was run?
The LD90 was 2.1 µg/mL.

And the LD100 (P. aeruginosa ATCC 10145; pH 5.5, 1% TSB)?
Its LD100 is 17.1 µg/mL.

And the LD90 (C. albicans ATCC 24433; pH 5.5, 1% TSB)?
The LD90 was 8.6 µg/mL.

And the LD100 (C. albicans ATCC 24433; pH 5.5, 1% TSB)?
The LD100 was 137 µg/mL.

And the LD90 (E. coli ATCC 11775)?
Its LD90 is 0.28 µg/mL.

And the LD100 (E. coli ATCC 11775)?
The LD100 was over 100 µg/mL.

B2: rHRNR1075–1172: recombinant HRNR fragment (protein, UniProt Q86YZ3 1075-1172, looked up, fragment)
chain: THGQHGSTSGQSSSCGQHGASSGQSSSHGQHGSGSSQSSGYGRQGSGSGQSPGHGQRGSGSRQSPSYGRHGSGSGRSSSSGQHGSGLGESSGFGHHES
What does the source list for B2?
LD90 (P. aeruginosa ATCC 10145; pH 5.5, 1% TSB): 6.25 µg/mL; LD100 (P. aeruginosa ATCC 10145; pH 5.5, 1% TSB): >100 µg/mL; LD90 (C. albicans ATCC 24433; pH 5.5, 1% TSB): 1.6 µg/mL; LD100 (C. albicans ATCC 24433; pH 5.5, 1% TSB): 12.5 µg/mL; LD90 (E. coli ATCC 11775): 6.25 µg/mL; LD100 (E. coli ATCC 11775): >100 µg/mL
